This note sets out measurements from paper PMC10952582, “Pregnenolone sulfate analogues differentially modulate GABAA receptor closed/desensitised states” (British Journal of Pharmacology, 2023).

Format in all cases: cell-based, murine
The target of experiment [1] is T1, α1V296Lβ3γ2L GABAAR (Mus musculus, UniProt P62812, V323L).
T1 construct: expressed in transfected cells; host or cells: HEK 293 cells (ATCC CRL-1573)
In words: Whole-cell voltage-clamp electrophysiology, minimally desensitising mutant α1V296Lβ3γ2L in HEK cells. As to the method: (§1) HEK 293 cells (ATCC Cat# CRL‐1573, RRID:CVCL_0045) were maintained and transfected under standard conditions. In brief, cells were grown in monolayers in Dulbecco's modified Eagle's medium supplemented with 10% v/v fetal calf serum, 100 U·ml^−1 of penicillin‐G and 100 μg·ml^−1 of streptomycin and incubated at 37°C in humidified 95% air/5% CO2.
(§2) Before transfection, HEK cells were plated onto 22 mm of glass coverslips (VWR) coated in poly‐L‐lysine (Sigma). Cells were transfected with α1 (wild‐type [wt] or mutant [mut]), β3 (wt), γ2L (wt or mut) and enhanced green fluorescent protein (eGFP) in an equimolar ratio (1:1:1:1), using a calcium‐phosphate precipitation protocol. The transfection solution was prepared from 4 μg of cDNA per coverslip, 20 μl of 340 mM of CaCl2 and 24 μl of 2× HEPES‐buffered saline (HBS) (50 mM of HEPES, 280 mM of NaCl and 2.8 mM of Na2HPO4). Cells were selected for electrophysiology after 16–30 h based on their morphology and moderate GFP fluorescence.
(§3) Coverslips with transfected HEK cells were transferred into a recording chamber on a Nikon Eclipse FN1 microscope with a 470‐nm LED for GFP fluorescence. Cells were continuously perfused with Krebs solution containing (mM) 140 NaCl, 4.7 KCl, 1.2 MgCl2, 2.52 CaCl2, 11 glucose and 5 HEPES (pH 7.4). Patch pipettes (thin‐walled filamented borosilicate glass capillaries; TW150F‐4; WPI, USA; 3–4 MΩ) were filled with an intracellular solution containing (mM) 140 CsCl, 2 NaCl, 2 MgCl2, 5 EGTA, 10 HEPES, 0.5 CaCl2, 2 Na‐ATP and 0.5 Na‐GTP (pH 7.2). Drugs were applied to cells using a Y‐tube delivery system (Mortensen & Smart, [2007]), with the PS analogues pre‐applied 10–12 s before co‐application with GABA.
(§4) HEK cells were voltage clamped at −30 mV using an Axopatch 200B amplifier (Molecular Devices, USA), and whole‐cell currents were filtered at 5 kHz (−36 dB), digitised at 50 kHz via a Digidata 1322A (Molecular Devices) and recorded to a Dell Optiplex 990 using Clampex 10.2 (Molecular Devices). Series resistance was compensated at 60%–70%, and only data with <20% deviation in series resistance would be included in subsequent analyses.
(§5) Weighted time constants for the decay phase (τw) were calculated by fitting a biexponential curve to the current decay waveform and applying the following equation: τw=A1.τ1+A2.τ2/A1+A2, where τ1 and τ2 represent time constants for the two exponential components of the decay phase and A1 and A2 are their relative area contributions.
(§6) Current responses from voltage‐clamp experiments were measured, and decays fitted using ClampFit 10.2 (Molecular Devices) to determine the respective time constants. In Origin, data were plotted as concentration–response curves, and curves fitted using the following inhibition equation: I/Imax=1−B^n/IC50^n+B^n, where I is the current response, B is the concentration of the PS analogue, n is the slope coefficient and IC50 is the analogue concentration producing 50% inhibition of GABA current (inhibitory potency). Potency values are presented as pIC50 with SEM values. The mean was transformed into a molar concentration by pIC50 = −log IC50. Other data are represented as the mean ± SEM.

In experiment [2] the target is T2, α1β3γ2LV262F GABAAR (Mus musculus, UniProt P62812).
T2 construct: expressed in transfected cells; host or cells: HEK 293 cells (ATCC CRL-1573)
In words: Whole-cell voltage-clamp electrophysiology, highly desensitising mutant α1β3γ2LV262F in HEK cells. As to the method:
as §1, §2, §3, §4, §5, §6

Experiment [3] deals with T3, α1β3γ2L GABAAR (Mus musculus, UniProt P62812).
T3 construct: expressed in transfected cells; host or cells: HEK 293 cells (ATCC CRL-1573)
In words: Whole-cell voltage-clamp electrophysiology, wild-type α1β3γ2L GABAARs expressed in HEK cells. The following applies: for mean (weighted) decay time (τw) of GABA current: 1 nM PS analogue, 30 μM GABA. Here is the method:
as §1, §2, §3, §4, §5, §6

Experiment [4] concerns the target T4, α1β3γ2L GABAAR (Mus musculus, UniProt P22723+P62812+P63080).
T4 construct: expressed in transfected cells; host or cells: HEK 293 cells (ATCC CRL-1573)
The experiment is described as above. As to the method:
as §1, §2, §3, §4, §5, §6

The mark [5] stands for this setting: steady-state current after 20 s of 1 mM GABA.
Setting [6] is: Decay inhibition (pIC50), potency for reducing GABA current weighted decay time constant, 30 μM GABA.
The mark [7] stands for this setting: Peak inhibition (IC50), peak current evoked by 30 μM GABA, analogue pre-applied 10–12 s and co-applied.
Where [8] appears, read: Steady-state inhibition (pIC50), GABA current after 20 s of 30 μM GABA (near steady state).

T4 sequence (P62812 28-455): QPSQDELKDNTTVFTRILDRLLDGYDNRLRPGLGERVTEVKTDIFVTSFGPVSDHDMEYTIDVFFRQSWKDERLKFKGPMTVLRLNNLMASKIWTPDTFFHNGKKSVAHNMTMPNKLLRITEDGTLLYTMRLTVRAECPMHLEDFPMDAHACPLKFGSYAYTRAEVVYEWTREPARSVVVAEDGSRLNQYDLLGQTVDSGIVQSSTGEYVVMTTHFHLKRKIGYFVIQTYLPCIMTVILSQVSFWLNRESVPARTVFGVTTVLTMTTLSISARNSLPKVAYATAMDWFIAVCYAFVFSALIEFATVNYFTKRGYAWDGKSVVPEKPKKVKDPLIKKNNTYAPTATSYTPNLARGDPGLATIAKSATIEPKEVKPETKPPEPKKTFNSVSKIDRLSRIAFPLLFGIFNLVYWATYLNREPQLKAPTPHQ
T4 sequence (P63080 26-473 partner): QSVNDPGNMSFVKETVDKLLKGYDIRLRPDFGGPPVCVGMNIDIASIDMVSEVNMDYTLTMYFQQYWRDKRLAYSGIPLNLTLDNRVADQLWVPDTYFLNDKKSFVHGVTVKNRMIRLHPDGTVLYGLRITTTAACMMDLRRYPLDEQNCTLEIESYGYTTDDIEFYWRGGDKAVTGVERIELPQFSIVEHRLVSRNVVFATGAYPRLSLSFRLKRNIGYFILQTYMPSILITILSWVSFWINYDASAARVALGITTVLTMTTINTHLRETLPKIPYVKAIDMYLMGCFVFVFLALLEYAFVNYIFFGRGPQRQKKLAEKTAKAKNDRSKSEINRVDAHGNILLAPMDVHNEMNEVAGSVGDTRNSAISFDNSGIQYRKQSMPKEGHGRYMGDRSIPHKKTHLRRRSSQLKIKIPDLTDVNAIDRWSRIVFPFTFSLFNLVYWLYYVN
T4 sequence (P22723 39-474 partner): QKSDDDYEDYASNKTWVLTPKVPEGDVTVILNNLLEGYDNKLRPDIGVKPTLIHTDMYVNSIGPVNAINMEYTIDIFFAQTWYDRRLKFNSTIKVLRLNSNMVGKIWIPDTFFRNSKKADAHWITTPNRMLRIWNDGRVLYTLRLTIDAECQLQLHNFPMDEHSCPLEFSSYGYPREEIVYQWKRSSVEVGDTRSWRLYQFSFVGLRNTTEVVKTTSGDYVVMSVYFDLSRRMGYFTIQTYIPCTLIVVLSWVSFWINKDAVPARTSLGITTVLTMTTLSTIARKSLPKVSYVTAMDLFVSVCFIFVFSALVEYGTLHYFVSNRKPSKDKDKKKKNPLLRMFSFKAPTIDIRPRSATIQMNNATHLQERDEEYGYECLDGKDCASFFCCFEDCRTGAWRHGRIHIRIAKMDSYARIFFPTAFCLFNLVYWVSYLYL
T3 sequence (P62812 28-455): as the sequence (P62812 28-455) above
T3 sequence (P63080 26-473 partner): as the sequence (P63080 26-473 partner) above
T3 sequence (P22723 39-474 partner): as the sequence (P22723 39-474 partner) above
T1 sequence (P62812 28-455 V323L): as the sequence (P62812 28-455) above, with V296L counted along it
T1 sequence (P63080 26-473 partner): as the sequence (P63080 26-473 partner) above
T1 sequence (P22723 39-474 partner): as the sequence (P22723 39-474 partner) above
T2 sequence (P62812 28-455): as the sequence (P62812 28-455) above
T2 sequence (P63080 26-473 partner): as the sequence (P63080 26-473 partner) above
T2 sequence (P22723 39-474 V300F partner): as the sequence (P22723 39-474 partner) above, with V262F counted along it

Turning to `NCCCC(=O)O` [GABA, γ‐Aminobutyric acid], the “mean weighted decay time constant (τw) of GABA current” value in experiment [1] (1 mM GABA, 20 s) was determined as 7.4 ± 1.3 s; in experiment [2] (1 mM GABA, 20 s), 2.3 ± 0.28 s; in experiment [3] (wild-type α1β3γ2L, 1 mM GABA, 20 s), 3.7 ± 0.17 s. For the same compound, the “extent of macroscopic desensitisation” value in experiment [1] (setting [5]) was 39 ± 6.0%; in experiment [2] (setting [5]), 89 ± 1.3%; in experiment [3] (wild-type α1β3γ2L, steady-state current after 20 s of 1 mM GABA), 68 ± 1.6%.
Consider `CC12CCC(OS(=O)(=O)O)CC1=CCC1C2CCC2(C)C(C(=O)CBr)CCC12` (centres unmarked) [compound 2], for which, in experiment [3], the “mean (weighted) decay time (τw) of GABA current” value worked out at 3.8 ± 0.2 s. Moreover, the IC50 in experiment [4] (Decay inhibition (IC50), potency for reducing GABA current weighted decay time constant, 30 μM GABA) was 880 nM; in experiment [4] (setting [6]), 875 nM; in experiment [4] (setting [7]) it was 2700 nM; in experiment [4] (Peak inhibition (pIC50), peak current evoked by 30 μM GABA, analogue pre-applied 10–12 s and co-applied), 2650 nM; in experiment [4] (setting [8]), 279 nM.
Turning to `C[C@]12CC[C@H](OS(=O)(=O)O)CC1=CCC1C2CC[C@@]2(C)C1CC[C@@H]2C(=O)Cn1ccnc1` (some centres unmarked) [compound 3], the “mean (weighted) decay time (τw) of GABA current” value in experiment [3] is recorded as 3.8 ± 0.8 s. Also, the IC50 was 8510 nM in experiment [4] (setting [6]); 743000 nM in experiment [4] (setting [7]); roughly 1000 nM in experiment [4] (Steady-state inhibition (IC50), GABA current after 20 s of 30 μM GABA (near steady state)); 891 nM in experiment [4] (setting [8]).
